# Laboratory results from patent publication US20160237158A1, “Methods and Compositions for Targeting Tumor Microenvironment and for preventing Metastasis” (INSTITUT NATIONAL DE LA SANTÉ ET DA LA RECHERCHE MÉDICALE …, priority 2013, published 2016).
# Experiments:
# hDF and hCAF = experiment: Matrix remodelling (collagen gel contraction) assay; format: cell-based, human; details: collagen rich lattices
# Protocol: (§1) 2.5×10^4 Fibroblasts were embedded in 100 μl of matrix gel (the Collagen-Matrigel mixture used for organotypic invasion assays) and plated into wells of a 96 well plate^57. After 1 h at 37° C., the matrices were overlaid with 100 μl serum-free medium (with either vehicle, cytokines or inhibitors) or CM. Every 2 days, medium was changed and at day 6 the gels were photographed and the respective diameters of the well and gel were measured using ImageJ. The percentage contraction was calculated using the formula 100*(well diameter−gel diameter)/well diameter.
# hDF = experiment: Collagen fibre assembly in 3D-organotypic cultures (Sirius Red); format: cell-based, human; details: hDF stimulated by either TGFβ1 or LIF
# Protocol: After embedding in paraffin, tissue sections from organotypic culture, skin from human breast and foreskin, and human skin carcinomas were prepared on slides using standard methods. Collagen assembly was evaluated by Sirius Red staining. Briefly, sections were first incubated with Weigert's iron hematoxylin (#C0231, Diapath, Martinengo, Italy) for 8 minutes and washed in distilled water for 10 minutes. Sections were next incubated with 1% Sirius Red in saturated picric acid for 1 hour. The slides were then washed twice with 0.5% acetic acid in distilled H2O, dehydrated and mounted using classical procedures. Sections were analysed using polarized light imaging and confocal laser microscopy with a LSM 5 EXCITER confocal microscope (Carl Zeiss, Germany). Collagen fibres thickness and length were quantified using ImageJ software.
# SCC12 cells = experiment: Organotypic invasion assay; format: cell-based, human
# Protocol: (§2) In this assay, hDF or CAFs were cultured during one week in serum-free medium (with either vehicle or cytokines) or CM before embedding in matrix gel. 5×10^5 fibroblasts were embedded in a 1 ml mixture of collagen I and Matrigel18. After the gel was set at 37° C. for 1 h, 5×10^5 SCC12 were plated on top of the gel in complete media. The next day, the gel was lifted onto individual collagen coated nylon discs resting on metal bridges and fed from underneath with daily changes of complete media (with either vehicle or inhibitors), allowing the epithelial layer to grow at an air-liquid interface.
# (§3) After 5 days, cultures were fixed (4% paraformaldehyde+0.25% glutaraldehyde in PBS) and processed for haematoxylin and eosin (H&E) staining by standard methods. Invasion assay was measuring the total area of SCC cells and the area of non-invading SCC cells using imageJ software (http://rsbweb.nih.gov/ij/). The value of invasion index shown is the average 1−(non-invading area/total area) of at least ten fields from three or more independent experiments. Error bars are the standard deviation.
# SMAD2 = SMAD2 phosphorylation in fibroblasts (western blot); format: cell-based, human; details: TGFβ1- or LIF-stimulated fibroblasts
# Excerpt: For western blot analysis, antibodies against STAT3 (#9134), pY705-STAT3 (#9145), SMAD2 (#3122), pSer465/467-SMAD2 (#3108), pY1022/1023-JAK1 (#3331), MLC2 (#3672), pThr18/19-MLC2 (#3674) were purchased from Cell Signaling (Cell Signaling Technology, Beverly Mass.), α-tubulin from sigma (T4026, Sigma, Saint Louis, Mo.); JAK1 from Biolegend (#604402, Biolegend, San Diego, Calif.), GP-130 (#sc-655) and RhoA (#sc-418, Santa Cruz Biotechnology, Santa Cruz, Calif.), and alpha-smooth muscle actin (α-SMA) from Abcam (#Ab5694, Abcam, Cambridge, Mass.). For immunofluorescence staining, antibodies against α-SMA and fibronectin were purchased from Sigma (#A2547 and F3648 respectively, Sigma, Saint Louis, Mo.). Chemical inhibitors used: Pyridone 6 (#42009, Calbiochem, Los Angeles, Calif.) was used at […], SB431542 (#1614, Tocris bioscience, Ellisville, Mo.) at 10 μM, Y27632 (#1254, Tocris bioscience, Ellisville, Mo.) and Actinomycin D (#856258, Sigma, Saint Louis, USA) at 5 μg/ml.
# For immunoblotting analysis, cells were lysed on ice in lysis buffer (25 mM Tris (pH 6.8), 2% Sodium dodecyl sulfate (SDS), 5% glycerol, 1% beta-mercaptoethanol, 0.01% bromophenol blue). Equal amounts of protein from each sample were loaded on sodium dodecyl sulfate-polyacrylamide gel electrophoresis, separated, and transferred onto nitrocellulose. […]
# fibroblasts = experiment: Fibroblast contractility (collagen lattices) and pro-invasive activity (organotypic invasion) induced by human tumour cell conditioned media; format: cell-based; design: key to Fibroblasts contractile & pro-invasive phenotype: +: induction; −: no induction
# Protocol: as §2, §3, §1
# Neutralizing antibody against LIF (AB-250-NA, R&D, Minneapolis, Minn.), IL-6 R (AB-227-NA, R&D) or TGF beta-1,2,3 (MAB1835, R&D) were used at 10 μg/ml otherwise stated. Neutralizing antibody were incubated one hour with conditioned media before being used for matrix remodelling assay and fibroblasts stimulation to neutralize the biological activity of selected cytokines.
# Cancer Cells were grown to confluence, washed twice with PBS and then incubated in serum-free medium at 37° C. After 48 hours, conditioned medium was collected, centrifugated at 5000 g for 5 minutes to remove cell debris and the supernatant stored at −80° C. For immunobloting analysis, fibroblasts were stimulated with cancer cells conditioned media for 5 min, otherwise stated, and lysed as described in the immunbloting section. To analyse LIF secretion upon TGFβ-1 stimulation, fibroblasts were stimulated with 2 ng/ml TGF beta-1 for 1, 4, 24 or 48 h in serum-free medium and conditioned media was prepared as below for ELISA analysis.
smiles,measurement,setting,value
"N#CCC(C1CCCC1)n1cc(-c2ncnc3[nH]ccc23)cn1 (stereo not shown) [Ruxolitinib, 3-Cyclopentyl-3-[4-(7H-pyrrolo[2,3-d]pyrimidin-4-yl)-1H-pyrazol-1-yl]propanenitrile]",TGFβ1 and LIF-dependent activation of hDF contractility,hDF and hCAF,completely inhibited
same,capacity to assembly polarized collagen fibres,hDF,inhibited
same,track formation and SCC12 cell invasion promoted by hCAF,SCC12 cells; hCAF,prevented
same,pro-invasive hDF activation induced upon TGFβ1 and LIF stimulation,"SCC12 cells; hDF, TGFβ1 and LIF stimulation",abrogated
same,effect on SMAD2,SMAD2,no effect
same,Fibroblasts contractile & pro-invasive phenotype,"fibroblasts; A375M2 CM (h. melanoma), antibodies 10 μg·ml−1, αLIF (50)",−
same,Fibroblasts contractile & pro-invasive phenotype,"fibroblasts; A375P CM (h. melanoma), antibodies 10 μg·ml−1",−
same,Fibroblasts contractile & pro-invasive phenotype,"fibroblasts; A549 CM (h. lung carcinoma), antibodies 10 μg·ml−1",−
same,Fibroblasts contractile & pro-invasive phenotype,"fibroblasts; CAL27 CM (human OSCC), antibodies 10 μg·ml−1, αLIF (50)",−
same,Fibroblasts contractile & pro-invasive phenotype,"fibroblasts; CAL33 CM (human OSCC), antibodies 10 μg·ml−1",−
same,Fibroblasts contractile & pro-invasive phenotype,"fibroblasts; CAL33_LIF CM (h. engineered cell line), antibodies 10 μg·ml−1, αLIF (50)",−
same,Fibroblasts contractile & pro-invasive phenotype,"fibroblasts; CAL33_mock CM (h. engineered cell line), antibodies 10 μg·ml−1",−
same,Fibroblasts contractile & pro-invasive phenotype,"fibroblasts; CAL60 CM (human OSCC), antibodies 10 μg·ml−1",−
same,Fibroblasts contractile & pro-invasive phenotype,"fibroblasts; CAL166 CM (human OSCC), antibodies 10 μg·ml−1",−
same,Fibroblasts contractile & pro-invasive phenotype,"fibroblasts; Detroit562 CM (human OSCC), antibodies 10 μg·ml−1",−
same,Fibroblasts contractile & pro-invasive phenotype,"fibroblasts; LS174 CM (h. colon carcinoma), antibodies 10 μg·ml−1",−
same,Fibroblasts contractile & pro-invasive phenotype,"fibroblasts; MDA-MB-231 CM (breast carcinoma), antibodies 10 μg·ml−1",−
same,Fibroblasts contractile & pro-invasive phenotype,"fibroblasts; MDA-MB-468 CM (breast carcinoma), antibodies 10 μg·ml−1",−
same,Fibroblasts contractile & pro-invasive phenotype,"fibroblasts; Mel501 CM (h. melanoma), antibodies 10 μg·ml−1",−
same,Fibroblasts contractile & pro-invasive phenotype,"fibroblasts; Mel1205 CM (h. melanoma), antibodies 10 μg·ml−1",−
same,Fibroblasts contractile & pro-invasive phenotype,"fibroblasts; SCC12 CM (human OSCC), antibodies 10 μg·ml−1",−
same,Fibroblasts contractile & pro-invasive phenotype,"fibroblasts; SCC13 CM (human OSCC), antibodies 10 μg·ml−1",−
same,Fibroblasts contractile & pro-invasive phenotype,"fibroblasts; SCC25 CM (human OSCC), antibodies 10 μg·ml−1",−
same,Fibroblasts contractile & pro-invasive phenotype,"fibroblasts; Sbcl2 CM (h. melanoma), antibodies 10 μg·ml−1",−
same,Fibroblasts contractile & pro-invasive phenotype,"fibroblasts; WM35 CM (h. melanoma), antibodies 10 μg·ml−1",−
same,Fibroblasts contractile & pro-invasive phenotype,"fibroblasts; WM278 CM (h. melanoma), antibodies 10 μg·ml−1",−
same,Fibroblasts contractile & pro-invasive phenotype,"fibroblasts; WM793 CM (h. melanoma), antibodies 10 μg·ml−1",−
same,Fibroblasts contractile & pro-invasive phenotype,"fibroblasts; hPK CM, antibodies 10 μg·ml−1",−
